The source of these data is US20260176289A1, “SMALL MOLECULE INHIBITORS OF KRAS PROTEINS” (Merck Sharp & Dohme LLC, priority 2022, published 2026).

Type in all cases: biochemical
Experiment [1] addresses T1, KRAS WT (amino acids 1-169) (Homo sapiens, UniProt P01116).
T1 construct: made in house; host or cells: E. coli
In words: SOS-catalyzed nucleotide exchange assay (Procedure B, BODIPY FL GDP displacement), KRAS WT. The settings on record: read-out: KRAS WT GNE IC50. The procedure: (§1) Procedure for SOS-Catalyzed Nucleotide Exchange Assay for KRAS-G12C/D/V/WT (Procedure B)
(§2) Recombinant KRAS G12C (amino acids 1-169, SEQ ID NO:9), KRAS G12D (amino acids 1-169, SEQ ID NO: 10), KRAS G12V (amino acids 1-169, SEQ ID NO: 11), KRAS WT (amino acids 1-169, SEQ ID NO:12) and SOS1 (amino acids 564-1049, SEQ ID NO: 13) proteins were expressed in E. coli and purified by affinity chromatography. To prepare each BODIPY™ FL GDP-bound KRAS protein, 50 μM KRAS proteins were incubated with 0.5 mM BODIPY™ FL GDP (Invitrogen, G22360) in a loading buffer (20 mM Tris-HCl pH 7.5, 50 mM NaCl, 1 mM DTT and 2.5 mM EDTA) for 1 hour on ice. After the incubation, MgCl2 was added to a final concentration of 10 mM, followed by an incubation at room temperature for 30 minutes. The mixtures were allowed to pass through a NAP-5 column to remove free nucleotides and purified BODIPY™ FL GDP-bound KRAS G12C, G12D, G12V and WT proteins were used for compound evaluation.
(§3) The inhibitory activity of compounds on recombinant KRAS is measured by the displacement of the bound BODIPY™ GDP. Specifically, 2.5 nM of each BODIPY™ FL GDP-bound KRAS complex was incubated with various concentrations of compound in a reaction buffer (20 mM Tris-HCl pH 7.5, 100 mM NaCl, 1 mM MgCl2, 2 mM DTT, 0.1% Tween 20) at 25° C. for 1 hour. After the incubation, recombinant SOS1 and GMPPNP (Jena Bioscience GmbH, NU-401) were added and incubated at room temperature for 30 minutes to proceed SOS1-dependent GDP-GTP exchange reaction on KRAS. Displacement of BODIPY™ FL GDP by Guanosine-5′-[(β,γ)-imido]triphosphate, Tetralithium salt (GMPPNP) was measured by calculating the ratio of fluorescence intensities of BODIPY™ FL before and after the exchange reaction. Percent Inhibition was calculated by setting the fluorescence ratio from the reaction without test compound (DMSO control) and the fluorescence ratio from the reaction without SOS1 and GMPPNP as 0% and 100% inhibition, respectively. Dose response curves were analyzed using a 4-parameter logistic model to calculate IC50 values.

Experiment [2] concerns the target T2, KRAS G12V (amino acids 1-169) (Homo sapiens, UniProt P01116, G12V).
T2 construct: made in house; host or cells: E. coli
In words: SOS-catalyzed nucleotide exchange assay (Procedure B, BODIPY FL GDP displacement), KRAS G12V. The conditions noted are these: read-out: KRAS G12V GNE IC50. The protocol: as §1, §2, §3

Experiment [3] has as its target T3, KRAS G12C (amino acids 1-169) (Homo sapiens, UniProt P01116, G12C).
T3 construct: made in house; host or cells: E. coli
The experiment is described as follows: SOS-catalyzed nucleotide exchange assay (Procedure B, BODIPY FL GDP displacement), KRAS G12C. The conditions noted are these: read-out: KRAS G12C GNE IC50. The procedure: as §1, §2, §3

For experiment [4], the target named is T4, KRAS G12D (amino acids 1-169) (Homo sapiens, UniProt P01116, G12D).
T4 construct: made in house; host or cells: E. coli
T4 sequence (P01116 with tags, fused parts or gaps isoform P01116-2 G12D): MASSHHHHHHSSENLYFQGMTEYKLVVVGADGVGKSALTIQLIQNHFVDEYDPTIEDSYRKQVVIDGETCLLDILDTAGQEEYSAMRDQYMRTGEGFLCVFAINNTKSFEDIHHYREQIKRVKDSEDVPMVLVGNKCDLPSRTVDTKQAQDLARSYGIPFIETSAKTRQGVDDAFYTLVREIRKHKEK
The experiment is described as follows: SOS-catalyzed nucleotide exchange assay (Procedure B, BODIPY FL GDP displacement), KRAS G12D. The conditions noted are these: read-out: KRAS G12D GNE IC50. The procedure:
as §1, §2, §3

T3 sequence (P01116 with tags, fused parts or gaps isoform P01116-2 G12C): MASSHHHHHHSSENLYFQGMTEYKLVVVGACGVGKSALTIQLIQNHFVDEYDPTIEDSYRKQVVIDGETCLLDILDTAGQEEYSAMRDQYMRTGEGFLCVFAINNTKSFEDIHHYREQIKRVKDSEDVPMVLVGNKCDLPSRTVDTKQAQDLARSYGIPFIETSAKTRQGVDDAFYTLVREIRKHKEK
T1 sequence (P01116 with tags, fused parts or gaps isoform P01116-2): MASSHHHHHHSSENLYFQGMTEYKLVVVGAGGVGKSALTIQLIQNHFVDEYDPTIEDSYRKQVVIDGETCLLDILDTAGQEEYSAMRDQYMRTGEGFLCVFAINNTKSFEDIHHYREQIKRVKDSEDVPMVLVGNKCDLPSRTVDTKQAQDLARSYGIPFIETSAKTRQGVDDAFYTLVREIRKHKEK
T2 sequence (P01116 with tags, fused parts or gaps isoform P01116-2 G12V): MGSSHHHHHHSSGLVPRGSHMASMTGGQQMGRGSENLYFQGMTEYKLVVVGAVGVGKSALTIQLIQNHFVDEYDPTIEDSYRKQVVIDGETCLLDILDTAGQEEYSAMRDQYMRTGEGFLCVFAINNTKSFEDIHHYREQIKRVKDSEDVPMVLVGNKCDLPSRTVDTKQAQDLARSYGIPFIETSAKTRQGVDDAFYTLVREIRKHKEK

Regarding `C#Cc1c(Cl)cc2[nH]ncc2c1-c1nccn2c1c(F)c1nc(OC[C@@]34CCCN3C[C@H](F)C4)nc(N3CCOC[C@@](C)(O)C3)c12` [Ex-304, (S)-4-(9-(6-chloro-5-ethynyl-1H-indazol-4-yl)-10-fluoro-2-(((2R,7aS)-2-fluorotetrahydro-1H-pyrrolizin-7a(5H)-yl)methoxy)pyrazino[1′,2′:1,5]pyrrolo[3,2-d]pyrimidin-4-yl)-6-methyl-1,4-oxazepan-6-ol], the IC50 turned out to be 34 nM in experiment [1], 33.9 nM in experiment [2], 24.9 nM in experiment [3] and 13.1 nM in experiment [4].

With `C#Cc1c(Cl)cc2[nH]ncc2c1-c1nccc2c1sc1nc(OC[C@@]34CCCN3C[C@H](F)C4)nc(N3CCOC[C@@](C)(O)C3)c12` [Ex-158, (6S)-4-(8-(6-chloro-5-ethynyl-1H-indazol-4-yl)-2-(((2R,7aS)-2-fluorotetrahydro-1H-pyrrolizin-7a(5H)-yl)methoxy)pyrido[4′,3′:4,5]thieno[2,3-d]pyrimidin-4-yl)-6-methyl-1,4-oxazepan-6-ol], the IC50 in experiment [1] was found to be 26.9 nM; in experiment [2], 15.5 nM; in experiment [3], 15.4 nM; in experiment [4] it was 7.18 nM.

In the case of `C[C@H]1CN2C[C@H](F)C[C@@]2(COc2nc(N3CCOC[C@@](C)(O)C3)c3c(n2)sc2c(-c4c(C5CC5)c(Cl)cc5[nH]ncc45)nccc23)C1` [Ex-226, (6S)-4-(8-(6-chloro-5-cyclopropyl-1H-indazol-4-yl)-2-(((2R,6R,7aR)-2-fluoro-6-methyl-tetrahydro-1H-pyrrolizin-7a(5H)-yl)methoxy)pyrido [4′,3′:4,5]thieno[2,3-d]pyrimidin-4-yl)-6-methyl-1,4-oxaze-pan-6-ol], the IC50 in experiment [1] worked out at 50.9 nM; in experiment [2] it was 42.1 nM; in experiment [3] it was 48 nM; in experiment [4], 30.6 nM.

On to `Cc1cc2[nH]ncc2c(-c2nccc3c2sc2nc(OC[C@@]45CCCN4C[C@H](F)C5)nc(N)c23)c1C(F)(F)F` [Ex-189, 2-(((2R,7aS)-2-fluoro-tetrahydro-1H-pyrrolizin-7a(5H)-yl)methoxy)-8-(6-methyl-5-(trifluoromethyl)-1H-indazol-4-yl)pyrido [4′,3′:4,5]thieno[2,3-d] pyrimidin-4-amine], for which the concentration for half-maximal inhibition (IC50) came out at 2250 nM in experiment [1], 2200 nM in experiment [2], 1360 nM in experiment [3] and 3010 nM in experiment [4].

Turning to `Cc1cc2[nH]ncc2c(-c2nccn3c2c(C)c2nc(OC[C@@]45CCCN4C[C@H](F)C5)nc(N4CCOC[C@@](C)(O)C4)c23)c1C(F)(F)F` (single isomer, unassigned) [Ex-301], the half-maximal inhibitory concentration (IC50) is 107 nM in experiment [1], 86.1 nM in experiment [2], 107 nM in experiment [3] and 49.5 nM in experiment [4].

Turning to `CC1Cc2cc3[nH]ncc3c(-c3nccc4c3sc3nc(OC[C@@]56CCCN5C[C@H](F)C6)nc(N5CCOC[C@@](C)(O)C5)c34)c2C1` (stereo partly drawn) [Ex-113, (6S)-4-(2-(((2R,7aS)-2-fluorotetrahydro-1H-pyrrolizin-7a(5H)-yl)methoxy)-8-(6-methyl-1,5,6,7-tetrahydrocyclopenta[f]in-dazol-4-yl)pyrido[4′,3′:4,5]thieno [2,3-d]pyrimidin-4-yl)-6-methy1-1,4-oxazepan-6-ol], the concentration for half-maximal inhibition (IC50) amounted to 150 nM in experiment [1], 123 nM in experiment [2], 177 nM in experiment [3] and 88.5 nM in experiment [4].

For the compound `CCC1CCc2cc3[nH]ncc3c(-c3nccc4c3sc3nc(OC[C@@]56CCCN5C/C(=C\F)C6)nc(N5CCOC[C@@](C)(O)C5)c34)c21` (stereo partly drawn) [Ex-94, (6S)-4-(8-(5-ethyl-1,5,6,7-tetrahydrocyclopenta[f]in-dazol-4-y1)-2-(((S,Z)-2-(fluoromethylene)tetrahy-dro-1H-pyrrolizin-7a(5H)-yl)methoxy)pyrido[4′,3':4,5]thi-eno[2,3-d]pyrimidin-4-y1)-6-methyl-1,4-oxazepan-6-ol], the IC50 in experiment [1] is 3.82 nM; in experiment [2], 4.2 nM; in experiment [3], 5.33 nM; in experiment [4], 1.68 nM.

In the case of `C[C@@]1(O)COCCN(c2nc(OC[C@@]34CCCN3C[C@H](F)C4)nc3c(I)c4c(-c5c(C6CC6)c(Cl)cc6[nH]ncc56)nccn4c23)C1` [Ex-303, (S)-4-(9-(6-chloro-5-cyclopropyl-1H-indazol-4-yl)-2-(((2R,7aS)-2-fluorotetrahydro-1H-pyrrolizin-7a(5H)-yl)methoxy)-10-iodopyrazino [1′,2′:1,5]pyrrolo [3,2-d]pyrimidin-4-yl)-6-methyl-1,4-oxazepan-6-ol], the half-inhibitory concentration (IC50) in experiment [1] worked out at 732 nM; in experiment [2], 837 nM; in experiment [3] it was 1140 nM; in experiment [4] it was 380 nM.

Regarding `C[C@@]1(O)COCCN(c2nc(OC[C@@]34CCCN3C[C@H](F)C4)nc3sc4c(-c5c6c(cc7[nH]ncc57)CCC6C#N)nccc4c23)C1` (stereo partly drawn) [Ex-96, 4-(2-(((2R,7aS)-2-fluorotetrahydro-1H-pyrrolizin-7a(5H)-yl)methoxy)-4-((S)-6-hydroxy-6-methyl-1,4-oxazepan-4-yl)pyrido[4′,3′:4,5]thieno [2,3-d]pyrimidin-8-yl)-1,5,6,7-tetrahydrocyclopenta[f]in-dazole-5-carbonitrile], the IC50 in experiment [1] was 125 nM; in experiment [2], 105 nM; in experiment [3] it was 193 nM; in experiment [4] it was 43.8 nM.

Turning to `C[C@@]1(O)COCCN(c2nc(OC[C@@]34CCCN3C[C@H](F)C4)nc3sc4c(-c5c6c(cc7[nH]ncc57)CCC6=O)nccc4c23)C1` [Ex-89, 4-(2-(((2R,7aS)-2-fluorotetrahydro-1H-pyrrolizin-7a(5H)-yl)methoxy)-4-((S)-6-hydroxy-6-methyl-1,4-oxazepan-4-yl)pyrido[4′,3′:4,5]thieno [2,3-d]pyrimidin-8-yl)-6,7-dihydrocyclopenta[f]inda-zol-5(1H)-one], the IC50 turned out to be 171 nM in experiment [1], 245 nM in experiment [2], 138 nM in experiment [3] and 80 nM in experiment [4].

For `C#Cc1cccc2cccc(-c3nncc4c3sc3nc(OC[C@@]56CCCN5C[C@H](F)C6)nc(N5CCOC[C@@](C)(O)C5)c34)c12` [Ex-285], the IC50 in experiment [1] was 889 nM; in experiment [2] it was 1000 nM; in experiment [3] it was 645 nM; in experiment [4] it was 322 nM.

On to `CC1c2c(cc3[nH]ncc3c2-c2nccc3c2sc2nc(OC[C@@]45CCCN4C[C@H](F)C5)nc(N4CCOC[C@@](C)(O)C4)c23)C(C)(C)C1(F)F` (stereo partly drawn) [Ex-100, (6S)-4-(8-(6,6-difluoro-5,7,7-trimethyl-1,5,6,7-tetrahydrocyclopenta[f]in-dazol-4-yl)-2-(((2R,7aS)-2-fluorotetrahydro-1H-pyrrolizin-7a(5H)-yl)methoxy)pyrido[4′,3′: 4,5]thieno[2,3-d]pyrimidin-4-yl)-6-methyl-1,4-oxazepan-6-ol], for which the concentration for half-maximal inhibition (IC50) in experiment [1] stood at 354 nM; in experiment [2], 507 nM; in experiment [3], 663 nM; in experiment [4], 216 nM.

As for `CO[C@]1(C)COCCN(c2nc(OC[C@@]34CCCN3C[C@H](F)C4)nc3sc4c(-c5c(C(F)(F)F)c(C)cc6[nH]ncc56)nccc4c23)C1` [Ex-203, (6S)-4-(2-(((2R,7aS)-2-fluorotetrahydro-1H-pyrrolizin-7a(5H)-yl)methoxy)-8-(6-methyl-5-(trifluoromethyl)-1H-indazol-4-yl)pyrido[4′,3′:4,5]thieno[2,3-d]pyrimidin-4-yl)-6-methoxy-6-methyl-1,4-oxazepane], the IC50 in experiment [1] was found to be 767 nM; in experiment [2] it was 936 nM; in experiment [3], 590 nM; in experiment [4], 493 nM.

In general, IC50 refers to the concentration needed to halve the response being measured.
